Measurements reported in PubChem BioAssay (NCI).
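Here, GI50 denotes the concentration required for 50% inhibition of growth. TGI is the concentration that stops growth completely.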

Tests used:
Test in all cases: growth of human tumour cells (NCI), 384-well format
[1] = test system: SNB-19 CNS
[2] = test system: COLO 205 colon
[3] = test system: HOP-62 NSCLC
[4] = test system: NCI-H23 lung
[5] = test system: DU-145 prostate
[6] = test system: SF-295 CNS
[7] = test system: SF-539 CNS
[8] = test system: HS 578T breast
[9] = test system: OVCAR-3 ovarian
[10] = test system: TK-10 renal
[11] = test system: SW-620 colon
[12] = test system: HOP-92 NSCLC
[13] = test system: SK-MEL-2 melanoma
[14] = test system: SF-268 CNS
[15] = test system: A498 renal
[16] = test system: MDA-MB-435 melanoma
[17] = test system: PC-3 prostate
[18] = test system: EKVX NSCLC
[19] = test system: KM12 colon
[20] = test system: HCT-15 colon
[21] = test system: CCRF-CEM leukemia
[22] = test system: HT29 colon
[23] = test system: SK-MEL-28 melanoma
[24] = test system: SR leukemia
[25] = test system: SNB-75 CNS
[26] = test system: RXF 393 renal
[27] = test system: HL-60(TB) leukemia
[28] = test system: UACC-257 melanoma
[29] = test system: M14 melanoma
[30] = test system: NCI-H322M lung
[31] = test system: MCF7 breast
[32] = test system: 786-0 renal
[33] = test system: BT-549 breast
[34] = test system: MOLT-4 leukemia
[35] = test system: A549 NSCLC
[36] = test system: SK-OV-3 ovarian
[37] = test system: NCI-H522 lung
[38] = test system: MALME-3M melanoma
[39] = test system: SK-MEL-5 melanoma
[40] = test system: HCC-2998 colon
[41] = test system: ACHN renal
[42] = test system: LOX IMVI melanoma
[43] = test system: SN12C renal
[44] = test system: RPMI-8226 leukemia
[45] = test system: OVCAR-4 ovarian
[46] = test system: OVCAR-5 ovarian
[47] = test system: CAKI-1 renal

## CC1(N)CCN(c2cnc(-c3cccc(Cl)c3Cl)c(N)n2)CC1
[1]
  GI50: 11.9 µM
  TGI: > 74.3 µM
[2]
  GI50: 21.3 µM
  TGI: 41.5 µM
[3]
  GI50: 24.3 µM
  TGI: > 74 µM
[4]
  GI50: 3.66 µM
  TGI: 23.4 µM
[5]
  GI50: 47 µM
  TGI: > 100 µM
[6]
  GI50: 21.5 µM
  TGI: > 55.2 µM
[7]
  GI50: 13.9 µM
  TGI: 27.7 µM
[8]
  GI50: 13.4 µM
  TGI: 27.2 µM
[9]
  GI50: 13.6 µM
  TGI: 45.3 µM
[10]
  GI50: 8.25 µM
  TGI: 25 µM
[11]
  GI50: 7.58 µM
  TGI: > 50.4 µM
[12]
  GI50: 1.02 µM
  TGI: 8.17 µM
[13]
  GI50: 13.7 µM
  TGI: 26.6 µM
[14]
  GI50: 18.6 µM
  TGI: 53.4 µM
[15]
  GI50: 4.27 µM
  TGI: 19.7 µM
[16]
  GI50: 22.8 µM
  TGI: 48 µM
[17]
  GI50: 21.4 µM
  TGI: > 60.4 µM
[18]
  GI50: 8.83 µM
  TGI: 30.8 µM
[19]
  GI50: 6.2 µM
  TGI: 20 µM
[20]
  GI50: 16.6 µM
  TGI: 33.5 µM
[21]
  GI50: 17 µM
  TGI: 31.2 µM
[22]
  GI50: 18 µM
  TGI: 34.7 µM
[23]
  GI50: 16.7 µM
  TGI: 30.5 µM
[24]
  GI50: 7.14 µM
  TGI: 20.3 µM
[25]
  GI50: 12.3 µM
  TGI: 38.2 µM
[26]
  GI50: 12.2 µM
  TGI: 25.5 µM
[27]
  GI50: 23.4 µM
  TGI: 38.1 µM
[28]
  GI50: 16.4 µM
  TGI: 30.1 µM
[29]
  GI50: 17.6 µM
  TGI: 31.5 µM
[30]
  GI50: 3.73 µM
  TGI: 47.2 µM
[31]
  GI50: 15.5 µM
  TGI: 29.7 µM
[32]
  GI50: 11.1 µM
  TGI: 24 µM
[33]
  GI50: 10.6 µM
  TGI: 24 µM
[34]
  GI50: 16.3 µM
  TGI: 30.7 µM
[35]
  GI50: 30.1 µM
  TGI: > 100 µM
[36]
  GI50: 10.2 µM
  TGI: 24.9 µM
[37]
  GI50: 2.64 µM
  TGI: 19.2 µM
[38]
  GI50: 14.8 µM
  TGI: 28 µM
[39]
  GI50: 15.3 µM
  TGI: 28.7 µM
[40]
  GI50: 16 µM
  TGI: 29.8 µM
[41]
  GI50: 10.5 µM
  TGI: 60.6 µM
[42]
  GI50: 17.1 µM
  TGI: 31 µM
[43]
  GI50: 5.63 µM
  TGI: 42.7 µM
[44]
  GI50: 13.9 µM
  TGI: 28.9 µM
[45]
  GI50: 14 µM
  TGI: > 77.1 µM
[46]
  GI50: 15.7 µM
  TGI: 47.6 µM
[47]
  GI50: 2.74 µM
  TGI: 16.9 µM

## NS(=O)(=O)NCCNc1nonc1C(=Nc1ccc(F)c(Br)c1)NO
[1]
  GI50: 42.1 µM
  TGI: > 100 µM
[2]
  GI50: 21.8 µM
  TGI: > 60.6 µM
[3]
  GI50: 39.9 µM
  TGI: > 100 µM
[4]
  GI50: 27.1 µM
  TGI: > 100 µM
[5]
  GI50: 48.2 µM
  TGI: > 100 µM
[6]
  GI50: 11.7 µM
  TGI: > 78.6 µM
[7]
  TGI: > 100 µM
[8]
  GI50: 25.3 µM
  TGI: 87.4 µM
[9]
  GI50: 24 µM
  TGI: 76.8 µM
[10]
  GI50: 28.8 µM
  TGI: > 89.2 µM
[11]
  GI50: 42.2 µM
  TGI: > 100 µM
[12]
  GI50: 29.6 µM
  TGI: > 89.5 µM
[13]
  GI50: 20.1 µM
  TGI: 47.1 µM
[14]
  GI50: 33.9 µM
  TGI: > 100 µM
[15]
  GI50: 4.27 µM
  TGI: > 80.2 µM
[16]
  GI50: 42.5 µM
  TGI: > 100 µM
[17]
  GI50: 6.11 µM
  TGI: > 100 µM
[18]
  GI50: 31.8 µM
  TGI: > 100 µM
[19]
  GI50: 8.9 µM
  TGI: > 100 µM
[20]
  GI50: 51.6 µM
  TGI: > 100 µM
[21]
  GI50: 17.6 µM
  TGI: 35.3 µM
[22]
  GI50: 41 µM
  TGI: > 100 µM
[23]
  GI50: 42.7 µM
  TGI: > 100 µM
[24]
  GI50: 14.6 µM
  TGI: 28.9 µM
[25]
  GI50: 21.4 µM
  TGI: 60.2 µM
[26]
  GI50: 4.11 µM
  TGI: > 31.6 µM
[27]
  GI50: 18.9 µM
  TGI: 33.2 µM
[28]
  GI50: 28.7 µM
  TGI: > 82.6 µM
[29]
  GI50: 38.9 µM
  TGI: > 100 µM
[30]
  GI50: 34.2 µM
  TGI: > 100 µM
[31]
  GI50: 38.8 µM
  TGI: > 100 µM
[32]
  GI50: 35.1 µM
  TGI: > 100 µM
[33]
  GI50: 5.97 µM
  TGI: > 56.3 µM
[34]
  GI50: 15.9 µM
  TGI: 29.8 µM
[35]
  GI50: 30.9 µM
  TGI: > 100 µM
[36]
  GI50: 10.9 µM
  TGI: > 100 µM
[37]
  GI50: 16.5 µM
  TGI: 47.7 µM
[38]
  GI50: 30.5 µM
  TGI: > 100 µM
[39]
  GI50: 35.9 µM
  TGI: > 92.6 µM
[40]
  GI50: 22.5 µM
  TGI: 51.7 µM
[41]
  GI50: 36.6 µM
  TGI: > 100 µM
[42]
  GI50: 34.5 µM
  TGI: > 100 µM
[43]
  GI50: 35.2 µM
  TGI: > 100 µM
[44]
  GI50: 17.6 µM
  TGI: 35.2 µM
[45]
  GI50: 21.4 µM
  TGI: 72.5 µM
[46]
  GI50: 49.9 µM
  TGI: > 100 µM
[47]
  GI50: 5.66 µM
  TGI: > 100 µM
